Publication PMC12655252, “Synthesis of 1H-Pyrrolo[3,2-g]isoquinoline Derivatives as Ligands Targeting Haspin Kinase” (Molecules, 2025)
pIC50, pKi: −log10 of the molar value.

Columns and labels:
Haspin = conditions: Figure 2; cited from earlier work
RnDYRK1A-kd = biological target: T1, RnDYRK1A-kd (Rattus norvegicus, UniProt Q63470); experiment: ADP-Glo in vitro kinase inhibition assay, DYRK1A; type: biochemical; conditions: 10 μM ATP, read-out: DYRK1A % residual activity; for remaining activity at 1 µM: 1 μM compound; for remaining activity at 10 µM: 10 μM compound
T1 construct: Rattus norvegicus, amino acids 1–499, pGEX-2TK; made in house; host or cells: bacteria
Experimental: (§1) We previouly reported that substitution at the 3-position with halogen atoms or pyridinyl or formyl groups was compatible with high potency toward Haspin kinase. To check if the current structural changes were in line with potent Haspin inhibition and high selectivity, enabling consideration of these compounds as possible targeting ligands for the PROTAC approach, compounds 2, 3, 8–11, and 15–17 were evaluated toward a panel of eight protein kinases, including Haspin, as well as other kinases known to be frequently cross-inhibited (CLK1, DYRK1A, CDK9/Cyclin T, GSK-3β, CK1ε, CDK5/p25, and Pim1) (Table 1). The percentage of residual kinase activity was evaluated at 10 μM and 1 μM compound concentrations. […].
(§2) Kinase inhibition was tested in 384-well plates using the ADP-GloTM assay kit (Promega, Madison, WI, USA) according to the procedure recommended by the manufacturer. Reactions were set up in a final volume of 6 μL in an appropriate kinase buffer (10 mM MgCl2, 1 mM EGTA, 1 mM DTT, 25 mM Tris-HCl pH 7.5, 50 μg/mL heparin) with either protein or peptide as the substrate in the presence of 10 μM ATP. To stop the kinase reaction, 6 μL of ADP-GloTM Kinase Reagent was added after 30 min at 30 °C. Then, after 50 min of incubation at room temperature (RT), 12 μL of Kinase Detection Reagent was added. The transmitted signal was measured after 1 h at RT using the Envision (Perkin Elmer, Waltham, MA, USA) microplate luminometer and expressed in relative light units (RLU). In order to determine the half-maximal inhibitory concentration (IC50), all assays were performed in duplicate in the absence or presence of increasing doses of the tested compounds. GraphPad Prism10 software (GraphPad Software, San Diego, CA, USA) was used to fit dose–response curves and to determine the IC50 values. Kinase activities are given as percentages of maximal activity, i.e., measured in the absence of inhibitor. Peptide substrates were obtained from Proteogenix (Schiltigheim, France).
(§3) The following protein kinases were analyzed in this study: CDK5/p25 (human, vector pGEX-2T, expressed in bacteria; kindly provided by Dr. J. H. Wang) was assayed with 0.8 μg/μL of histone H1 as substrate; HsCDK9/CyclinT (NP_001252/KAI4065659, cloned in pTEFb vector, expressed by baculovirus in Sf9 insect cells) were assayed with 0.27 μg/μL of the following peptide: […], as substrate; HsCK1ε (NP_001885, cloned in pFAST-BAC vector, expressed in Sf9 insect cells) was assayed with 0.022 μg/μL of the following peptide: […]pAYSITA (“Sp” stands for phosphorylated serine) as CK1-specific substrate; HsGSK3β (AAH12760, cloned in pFAST-BAC, expressed by baculovirus in Sf9 insect cells) were assayed with 0.010 μg/μL of GS-1 peptide, a GSK-3-selective substrate ([…]pEDEEE); HsHaspin-kd (NP_114171, kinase domain, amino acids 470–798 cloned in pGEX-6P-3, expressed in bacteria) was assayed with 0.007 μg/μL of histone H3 (1–21) peptide ([…]) as substrate; Pim-1 (KAI4018123, expressed in bacteria) was assayed with 0.8 μg/μL of histone H1 as substrate; HsCLK1 (NP_004062, cloned in pFAST-BAC, expressed in Sf9 insect cells) was assayed with 0.027 μg/μL of the peptide: […]; RnDYRK1A-kd (Rattus norvegicus, amino acids 1–499, pGEX-2TK, expressed in bacteria, gift from Dr. W. Becker, Aachen, Germany) was tested in the presence of 0.033 μg/μL of the peptide: […].

HsCDK9/CyclinT = biological target: T2, HsCDK9/CyclinT (Homo sapiens, UniProt P50750); experiment: ADP-Glo in vitro kinase inhibition assay, CDK9/CyclinT; type: biochemical; conditions: 10 μM ATP, read-out: CDK9 % residual activity; for remaining activity at 1 µM: 1 μM compound; for remaining activity at 10 µM: 10 μM compound
T2 construct: made in house; host or cells: Sf9 insect cells (baculovirus)
T2 sequence (P50750 whole entry): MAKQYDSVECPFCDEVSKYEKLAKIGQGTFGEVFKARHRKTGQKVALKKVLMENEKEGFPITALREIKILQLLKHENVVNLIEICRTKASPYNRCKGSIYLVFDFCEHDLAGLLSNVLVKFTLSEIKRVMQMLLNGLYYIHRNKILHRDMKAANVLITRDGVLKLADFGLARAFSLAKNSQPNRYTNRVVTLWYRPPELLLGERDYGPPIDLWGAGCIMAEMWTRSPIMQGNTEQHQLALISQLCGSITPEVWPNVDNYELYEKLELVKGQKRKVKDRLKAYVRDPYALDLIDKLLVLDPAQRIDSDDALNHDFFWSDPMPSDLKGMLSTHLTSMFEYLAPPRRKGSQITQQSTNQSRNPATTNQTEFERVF
T2 sequence (O60563 whole entry partner): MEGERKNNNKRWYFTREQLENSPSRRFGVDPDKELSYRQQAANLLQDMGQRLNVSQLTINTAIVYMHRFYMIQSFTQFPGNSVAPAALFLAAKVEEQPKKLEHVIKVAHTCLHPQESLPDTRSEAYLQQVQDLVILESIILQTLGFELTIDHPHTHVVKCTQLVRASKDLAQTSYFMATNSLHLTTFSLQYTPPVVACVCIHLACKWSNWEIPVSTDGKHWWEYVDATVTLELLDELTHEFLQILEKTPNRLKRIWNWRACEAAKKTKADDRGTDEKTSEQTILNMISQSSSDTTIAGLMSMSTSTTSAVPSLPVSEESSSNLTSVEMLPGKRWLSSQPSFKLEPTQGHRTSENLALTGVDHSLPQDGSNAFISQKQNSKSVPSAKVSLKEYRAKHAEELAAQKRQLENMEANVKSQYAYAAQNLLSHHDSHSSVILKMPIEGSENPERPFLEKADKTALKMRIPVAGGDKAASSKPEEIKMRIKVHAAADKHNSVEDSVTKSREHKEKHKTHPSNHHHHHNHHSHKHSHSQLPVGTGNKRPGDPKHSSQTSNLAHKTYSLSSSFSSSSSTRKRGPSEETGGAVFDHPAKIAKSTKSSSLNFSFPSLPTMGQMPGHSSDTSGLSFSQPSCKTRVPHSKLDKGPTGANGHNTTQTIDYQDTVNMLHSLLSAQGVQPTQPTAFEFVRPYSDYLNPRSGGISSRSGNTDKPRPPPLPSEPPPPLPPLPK
Experimental: as §1, §2, §3

Pim-1 = biological target: T3, Pim-1 (Homo sapiens, UniProt P11309); experiment: ADP-Glo in vitro kinase inhibition assay, Pim-1; type: biochemical; conditions: 10 μM ATP, read-out: PIM1 % residual activity; for remaining activity at 1 µM: 1 μM compound; for remaining activity at 10 µM: 10 μM compound
T3 construct: made in house; host or cells: bacteria
T3 sequence (P11309 whole entry): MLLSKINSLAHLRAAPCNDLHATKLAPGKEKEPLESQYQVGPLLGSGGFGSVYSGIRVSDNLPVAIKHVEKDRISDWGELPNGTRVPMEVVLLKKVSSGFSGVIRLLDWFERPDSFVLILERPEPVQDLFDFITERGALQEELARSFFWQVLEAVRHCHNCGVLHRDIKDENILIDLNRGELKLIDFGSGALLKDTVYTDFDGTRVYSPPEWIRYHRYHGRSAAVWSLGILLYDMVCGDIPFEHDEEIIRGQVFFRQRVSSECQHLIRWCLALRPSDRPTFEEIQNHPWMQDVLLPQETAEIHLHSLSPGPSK
Experimental: as §1, §2, §3

HsHaspin-kd = biological target: T4, HsHaspin-kd (Homo sapiens, UniProt Q8TF76); experiment: ADP-Glo in vitro kinase inhibition assay, Haspin; type: biochemical; conditions: 10 μM ATP, duplicate; for remaining activity at 1 µM: 1 μM compound; for remaining activity at 1 µM / remaining activity at 10 µM: read-out: Haspin % residual activity; for remaining activity at 10 µM: 10 μM compound
T4 construct: kinase domain, amino acids 470–798 cloned in pGEX-6P-3; made in house; host or cells: bacteria
T4 sequence (Q8TF76 470-798): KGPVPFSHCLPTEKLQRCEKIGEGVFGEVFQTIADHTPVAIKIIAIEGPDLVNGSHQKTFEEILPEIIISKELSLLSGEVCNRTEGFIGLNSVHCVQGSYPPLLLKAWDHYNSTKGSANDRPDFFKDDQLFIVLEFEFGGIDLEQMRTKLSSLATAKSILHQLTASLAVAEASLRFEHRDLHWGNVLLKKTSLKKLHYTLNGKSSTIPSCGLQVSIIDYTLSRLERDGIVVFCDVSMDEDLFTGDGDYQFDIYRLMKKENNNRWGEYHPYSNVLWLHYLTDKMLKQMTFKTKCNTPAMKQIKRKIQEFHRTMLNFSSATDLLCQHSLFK
Experimental: as §1, §2, §3

CDK5/p25 = biological target: T5, CDK5/p25 (Homo sapiens, UniProt Q00535); experiment: ADP-Glo in vitro kinase inhibition assay, CDK5/p25; type: biochemical; conditions: 10 μM ATP, read-out: CDK5 % residual activity; for remaining activity at 1 µM: 1 μM compound; for remaining activity at 10 µM: 10 μM compound
T5 construct: made in house; host or cells: bacteria
T5 sequence (Q00535 whole entry): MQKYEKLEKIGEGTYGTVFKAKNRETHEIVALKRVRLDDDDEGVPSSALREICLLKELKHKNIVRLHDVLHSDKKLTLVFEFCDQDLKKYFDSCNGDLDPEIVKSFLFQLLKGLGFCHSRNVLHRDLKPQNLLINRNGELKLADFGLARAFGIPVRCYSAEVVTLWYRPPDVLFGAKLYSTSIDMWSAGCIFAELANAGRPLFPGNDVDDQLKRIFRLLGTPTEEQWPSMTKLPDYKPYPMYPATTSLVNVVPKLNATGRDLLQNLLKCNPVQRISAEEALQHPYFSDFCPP
T5 sequence (Q15078 99-307 partner limits assumed): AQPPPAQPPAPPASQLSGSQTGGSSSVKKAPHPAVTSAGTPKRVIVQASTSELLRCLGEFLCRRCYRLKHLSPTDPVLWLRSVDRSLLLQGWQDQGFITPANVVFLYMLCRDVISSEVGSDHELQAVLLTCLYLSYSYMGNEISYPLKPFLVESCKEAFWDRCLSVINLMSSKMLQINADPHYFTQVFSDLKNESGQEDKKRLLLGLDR
Experimental: as §1, §2, §3

HsGSK3β = biological target: T6, HsGSK3β (Homo sapiens, UniProt P49841); experiment: ADP-Glo in vitro kinase inhibition assay, GSK3β; type: biochemical; conditions: 10 μM ATP, read-out: GSK3 % residual activity; for remaining activity at 1 µM: 1 μM compound; for remaining activity at 10 µM: 10 μM compound
T6 construct: made in house; host or cells: Sf9 insect cells (baculovirus)
T6 sequence (P49841 whole entry): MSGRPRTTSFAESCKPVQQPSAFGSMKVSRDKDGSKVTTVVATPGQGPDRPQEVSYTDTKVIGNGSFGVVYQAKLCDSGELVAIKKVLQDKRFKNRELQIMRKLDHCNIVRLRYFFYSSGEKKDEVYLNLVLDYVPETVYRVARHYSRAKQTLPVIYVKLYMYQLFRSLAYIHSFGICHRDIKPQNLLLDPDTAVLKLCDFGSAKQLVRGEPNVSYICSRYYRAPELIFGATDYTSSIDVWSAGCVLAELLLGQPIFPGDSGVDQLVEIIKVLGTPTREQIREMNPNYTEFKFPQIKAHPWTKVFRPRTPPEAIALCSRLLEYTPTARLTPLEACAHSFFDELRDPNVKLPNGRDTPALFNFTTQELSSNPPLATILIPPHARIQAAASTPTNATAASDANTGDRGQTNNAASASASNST
Experimental: as §1, §2, §3

HsCLK1 = biological target: T7, HsCLK1 (Homo sapiens, UniProt P49759); experiment: ADP-Glo in vitro kinase inhibition assay, CLK1; type: biochemical; conditions: 10 μM ATP, read-out: CLK1 % residual activity; for remaining activity at 1 µM: 1 μM compound; for remaining activity at 10 µM: 10 μM compound
T7 construct: made in house; host or cells: Sf9 insect cells
T7 sequence (P49759 whole entry): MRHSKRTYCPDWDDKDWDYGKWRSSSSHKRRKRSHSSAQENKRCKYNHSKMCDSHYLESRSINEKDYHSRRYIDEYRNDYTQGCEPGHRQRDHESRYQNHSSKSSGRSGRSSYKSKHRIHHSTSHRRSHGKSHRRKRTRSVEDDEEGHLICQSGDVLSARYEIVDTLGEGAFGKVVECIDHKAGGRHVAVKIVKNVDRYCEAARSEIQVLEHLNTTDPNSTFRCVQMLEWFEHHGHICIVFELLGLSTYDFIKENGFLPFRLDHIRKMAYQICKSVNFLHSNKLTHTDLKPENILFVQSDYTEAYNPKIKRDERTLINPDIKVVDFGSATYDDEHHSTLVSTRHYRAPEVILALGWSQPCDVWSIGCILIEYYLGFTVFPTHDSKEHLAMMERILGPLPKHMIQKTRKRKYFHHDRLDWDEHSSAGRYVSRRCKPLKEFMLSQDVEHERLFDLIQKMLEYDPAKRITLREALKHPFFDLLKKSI
Experimental: as §1, §2, §3

HsCK1ε = biological target: T8, HsCK1ε (Homo sapiens, UniProt P49674); experiment: ADP-Glo in vitro kinase inhibition assay, CK1ε; type: biochemical; conditions: 10 μM ATP, read-out: CK1 % residual activity; for remaining activity at 1 µM: 1 μM compound; for remaining activity at 10 µM: 10 μM compound
T8 construct: made in house; host or cells: Sf9 insect cells
T8 sequence (P49674 whole entry): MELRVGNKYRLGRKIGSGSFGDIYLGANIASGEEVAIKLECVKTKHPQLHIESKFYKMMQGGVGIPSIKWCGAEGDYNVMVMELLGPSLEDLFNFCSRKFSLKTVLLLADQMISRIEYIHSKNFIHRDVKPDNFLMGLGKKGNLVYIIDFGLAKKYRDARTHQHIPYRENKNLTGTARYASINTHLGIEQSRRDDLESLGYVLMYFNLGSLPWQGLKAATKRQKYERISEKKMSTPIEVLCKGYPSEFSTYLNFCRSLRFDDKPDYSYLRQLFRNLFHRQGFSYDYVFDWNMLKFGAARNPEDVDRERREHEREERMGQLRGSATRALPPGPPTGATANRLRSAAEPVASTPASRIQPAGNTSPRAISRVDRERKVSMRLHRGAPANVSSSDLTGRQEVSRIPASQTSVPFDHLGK
Experimental: as §1, §2, §3

remaining activity at 1 µM (RnDYRK1A-kd)	remaining activity at 10 µM (RnDYRK1A-kd)	remaining activity at 1 µM (HsCDK9/CyclinT)	remaining activity at 10 µM (HsCDK9/CyclinT)	remaining activity at 1 µM (Pim-1)	remaining activity at 10 µM (Pim-1)	remaining activity at 1 µM (HsHaspin-kd)	pIC50 (HsHaspin-kd)	remaining activity at 10 µM (HsHaspin-kd)	remaining activity at 1 µM (CDK5/p25)	remaining activity at 10 µM (CDK5/p25)	remaining activity at 1 µM (HsGSK3β)	remaining activity at 10 µM (HsGSK3β)	remaining activity at 1 µM (HsCLK1)	remaining activity at 10 µM (HsCLK1)	remaining activity at 1 µM (HsCK1ε)	remaining activity at 10 µM (HsCK1ε)	Molecule	pIC50 (Haspin)	pKi (Haspin)
–	–	–	–	–	–	–	–	–	–	–	–	–	–	–	–	–	COc1ccc2c(c1)[nH]c1c(C)nccc12 [Harmine, harmine]	6.23	–
–	–	–	–	–	–	–	–	–	–	–	–	–	–	–	–	–	C#Cc1cn([C@@H]2S[C@H](CN=[N+]=[N-])[C@@H](O)[C@H]2O)c2ncnc(N)c12 [LJ-4827]	–	9.33
51%	28%	79%	32%	42%	21%	30%	6.41	12%	100%	100%	80%	80%	86%	48%	92%	87%	CC(C)(C)OC(=O)/C=C/c1c[nH]c2cc3cnccc3cc12 [Compound 9, tert-Butyl (E)-3-(1H-Pyrrolo[3,2-g]isoquinolin-3-yl)prop-2-enoate]	–	–
20%	16%	81%	56%	20%	14%	9%	8.00	8%	100%	100%	76%	81%	56%	27%	79%	54%	Clc1cc(-c2c[nH]c3cc4cnccc4cc23)ccn1 [Compound 2, 3-(2-Chloro-pyridin-4-yl)-1H-pyrrolo[3,2-g]isoquinoline]	–	–
–	–	–	–	–	–	–	–	–	–	–	–	–	–	–	–	–	Cc1ccc(NC(=O)c2ccc3c(c2)c(CNCCN2CCNCC2)cn3C)cc1C [Compound A]	11.00	–
72%	32%	90%	72%	72%	52%	45%	7.09	10%	100%	100%	100%	99%	91%	60%	100%	97%	COC(=O)CCc1c[nH]c2cc3cnccc3cc12 [Compound 10, Methyl 3-(1H-Pyrrolo[3,2-g]isoquinolin-3-yl)propanoate]	–	–
–	–	–	–	–	–	–	–	–	–	–	–	–	–	–	–	–	harmol	6.11	–
58%	31%	100%	86%	70%	60%	70%	–	52%	100%	100%	83%	94%	98%	81%	98%	81%	CC(C)(C)OC(=O)CCc1c[nH]c2cc3cnccc3cc12 [Compound 11, tert-Butyl 3-(1H-Pyrrolo[3,2-g]isoquinolin-3-yl)propanoate]	–	–
–	–	–	–	–	–	–	–	–	–	–	–	–	–	–	–	–	COc1ccc2nc3ccc(Cl)cc3c(SCCCN)c2c1 [LDN-209929]	7.26	–
